Experiments:
[1] = system: Brassica napus (winter rape, species Bristol); experiment: Field trial of treated oilseed rape seed: plant biomass (determining the weight); type: in vivo; settings: for Plant biomass (% - relative to untreated): standard treatment agent, rate not given, winter rape Bristol, untreated = 100
Protocol: (§1) The seed treated in accordance with the production examples described above was tested in field trials at a sowing rate of 4 kg per hectare. The individual test parameters were evaluated using the methods usually used in practice in each case, such as determining the weight for plant biomass and grading in the event of fungal infestation.
(§2) The increase in the plant biomass and the suppression of fungal infestation in both the exemplary embodiments of treatment of oilseed rape seed with fluquinconazole is higher compared with the untreated control and compared with the active substance dimethomorph which was co-tested as a reference and is used as the standard treatment agent in oilseed rape for protection against downy mildew.

[2] = system: Fungal infestation of the leaves; experiment: Field trial of treated oilseed rape seed: fungal infestation of the leaves (grading); type: in vivo, Brassica napus
Protocol: as §1, §2

[3] = system: Brassica napus (winter rape, species Express); experiment: Field trial of treated oilseed rape seed: yield; type: in vivo; settings: seed treatment; independent of the site
Protocol: as §1
The yield after a period of vegetation is higher after treatment of the oilseed rape seed with fluquinconazole compared with the untreated control. This effect is independent of the site.

downy mildew = experiment: Field trial of treated oilseed rape seed: foliar infestation with downy mildew (grading); type: in vivo, Brassica napus; settings: 24 days after sowing; standard treatment agent, rate not given; winter rape Bristol; untreated = 15
Protocol: as §1, §2

[4] = seed treatment, both exemplary embodiments

O=c1c2cc(F)ccc2nc(-n2cncn2)n1-c1ccc(Cl)cc1Cl [fluquinconazole, 3-(2,4-dichlorophenyl)-6-fluoro-2-(1H-1,2,4-triazol-1-yl)-quinazolin-4(3H)-one]
Increase in the plant biomass compared with the untreated control and with dimethomorph [1, 4]: higher
Suppression of fungal infestation compared with the untreated control and with dimethomorph [2, 4]: higher
Yield after a period of vegetation compared with the untreated control [3]: higher

COc1ccc(C(=CC(=O)N2CCOCC2)c2ccc(Cl)cc2)cc1OC [Dimethomorph]
Foliar infestation with downy mildew (% total infestation) (downy mildew): 5 % total infestation
Plant biomass (% - relative to untreated) ([1]; 24 days after sowing): 105%
Plant biomass (% - relative to untreated) ([1]; 41 days after sowing): 102%
Fungal infestation of the leaves (% total infestation) ([2]; 41 days after sowing, standard treatment agent, rate not given, winter rape Bristol, untreated = 30): 25 % total infestation

From patent US20050181947A1, “Fungicidal seed treatment agent for oilseed rape” (BASF Agro BV., Amhem (NL)-Wadenswil-Branch, priority 2002, published 2005)
